Measured values: the NIST ThermoML archive (doi:10.1016/j.tca.2006.04.001)

Conditions: Liquid, Pycnometric method

CCCCCCCCCCCCCCCCCCCCC [heneicosane]
Conditions | specific volume [m3/kg]
313.65 K | 0.001285
315.75 K | 0.001283
317.65 K | 0.001286
319.65 K | 0.001288
321.55 K | 0.001289
323.55 K | 0.001291
325.45 K | 0.001294
327.45 K | 0.001296
329.35 K | 0.001299
331.25 K | 0.001302
333.25 K | 0.001302
335.15 K | 0.001304
337.15 K | 0.001307
339.05 K | 0.001309
341.05 K | 0.00131
342.95 K | 0.001313
344.85 K | 0.001315
346.85 K | 0.001317
348.75 K | 0.001321
350.75 K | 0.001324
352.65 K | 0.001325
354.65 K | 0.001329
354.85 K | 0.001329
356.55 K | 0.001331
358.45 K | 0.001333
360.45 K | 0.001335
362.35 K | 0.001337
364.35 K | 0.00134
366.25 K | 0.001342
368.15 K | 0.001344
370.15 K | 0.001349
372.05 K | 0.00135
374.05 K | 0.001354
375.45 K | 0.001353
375.95 K | 0.001354
377.95 K | 0.001358
379.85 K | 0.001361
381.75 K | 0.001362
383.75 K | 0.001366
385.65 K | 0.001367
387.65 K | 0.001369
389.55 K | 0.001373
391.55 K | 0.001373
393.45 K | 0.001377
395.35 K | 0.00138
396.05 K | 0.00138
397.35 K | 0.001381
399.25 K | 0.001386
401.25 K | 0.001384
403.15 K | 0.001387
405.15 K | 0.001392
407.05 K | 0.001394
408.95 K | 0.001396
410.95 K | 0.001401
412.85 K | 0.001401
414.85 K | 0.001404
416.65 K | 0.001408
416.75 K | 0.001409
418.65 K | 0.00141
420.65 K | 0.001411
422.55 K | 0.001417
424.55 K | 0.001419
426.45 K | 0.001421
428.45 K | 0.001423
430.35 K | 0.001426
432.25 K | 0.001432
434.25 K | 0.001432
436.15 K | 0.001436
437.25 K | 0.001437
438.15 K | 0.001437
440.05 K | 0.001443
442.05 K | 0.001444
443.95 K | 0.001448
445.85 K | 0.00145
447.85 K | 0.001454
449.75 K | 0.001455
451.75 K | 0.001458
453.65 K | 0.00146
455.65 K | 0.001464
457.55 K | 0.001467
457.85 K | 0.001468
459.45 K | 0.00147
461.45 K | 0.001471
463.35 K | 0.001476
465.35 K | 0.001479
467.25 K | 0.001484
469.15 K | 0.001485
471.15 K | 0.001489
473.05 K | 0.001491
475.05 K | 0.001492
476.95 K | 0.001497
478.45 K | 0.001498
478.95 K | 0.001502
480.85 K | 0.001503
482.75 K | 0.001505
484.75 K | 0.001511
486.65 K | 0.001513
488.65 K | 0.001516
488.75 K | 0.001517
490.55 K | 0.001519
492.55 K | 0.001521
494.45 K | 0.001523
496.35 K | 0.00153
498.35 K | 0.001531
500.25 K | 0.001537
502.25 K | 0.001536
504.15 K | 0.001543
506.15 K | 0.001544
508.05 K | 0.00155
509.95 K | 0.001551
511.95 K | 0.001554
513.85 K | 0.001559
515.85 K | 0.001564
517.75 K | 0.001567
519.65 K | 0.001569
521.65 K | 0.001575
523.55 K | 0.001575
525.55 K | 0.001582
527.45 K | 0.001586
529.45 K | 0.001588
531.35 K | 0.001588
533.25 K | 0.001596
535.25 K | 0.0016
537.15 K | 0.001603
539.15 K | 0.001606
541.05 K | 0.001612
543.05 K | 0.001614
544.95 K | 0.001617
546.85 K | 0.001621
548.85 K | 0.001626
550.75 K | 0.001626
552.75 K | 0.001634
554.65 K | 0.001635
556.65 K | 0.001639
558.55 K | 0.001643
560.45 K | 0.001648
562.45 K | 0.00165
564.35 K | 0.001657
566.35 K | 0.001659

CCCCCCCCCCCCCCCC [hexadecane]
Conditions | specific volume [m3/kg]
298 K | 0.001313
323 K | 0.001344
348 K | 0.001376
373 K | 0.001411
398 K | 0.001447
423 K | 0.001486
448 K | 0.001529
473 K | 0.001575
498 K | 0.001626
523 K | 0.001682
548 K | 0.001744
573 K | 0.001811

CCCCCCCCCCCCCCCCCCC [nonadecane]
Conditions | specific volume [m3/kg]
305.45 K | 0.0013
307.55 K | 0.001303
309.55 K | 0.001304
311.65 K | 0.001304
313.65 K | 0.001307
315.75 K | 0.001309
317.75 K | 0.001311
319.85 K | 0.001313
321.95 K | 0.001316
323.95 K | 0.001319
326.05 K | 0.001322
328.05 K | 0.001321
330.15 K | 0.001324
332.25 K | 0.001327
334.25 K | 0.001329
336.35 K | 0.001331
338.35 K | 0.001335
340.45 K | 0.001337
342.55 K | 0.001339
344.55 K | 0.001338
346.65 K | 0.001344
348.65 K | 0.001345
350.75 K | 0.001346
352.85 K | 0.001348
354.85 K | 0.001353
356.95 K | 0.001355
358.95 K | 0.001357
361.05 K | 0.001359
363.15 K | 0.001362
365.15 K | 0.001365
367.25 K | 0.001368
369.25 K | 0.00137
371.35 K | 0.001373
373.45 K | 0.001374
375.45 K | 0.001376
377.55 K | 0.001379
379.55 K | 0.001382
381.65 K | 0.001385
383.75 K | 0.001389
385.75 K | 0.001391
387.85 K | 0.001394
389.85 K | 0.001396
391.95 K | 0.001401
393.95 K | 0.001404
396.05 K | 0.001405
398.15 K | 0.001405
400.15 K | 0.00141
402.25 K | 0.001412
404.25 K | 0.001415
406.35 K | 0.001418
408.45 K | 0.001422
410.45 K | 0.001426
412.55 K | 0.001429
414.55 K | 0.001434
416.65 K | 0.001436
418.75 K | 0.001439
420.75 K | 0.001439
422.85 K | 0.001442
424.85 K | 0.001447
426.95 K | 0.00145
429.05 K | 0.001452
431.05 K | 0.001456
433.15 K | 0.001457
435.15 K | 0.001461
437.25 K | 0.001464
439.35 K | 0.001466
441.35 K | 0.001469
443.45 K | 0.001475
445.45 K | 0.001479
447.55 K | 0.001481
449.65 K | 0.001485
451.65 K | 0.001485
453.75 K | 0.001492
455.75 K | 0.001495
457.85 K | 0.001498
459.95 K | 0.001504
461.95 K | 0.001506
464.05 K | 0.001508
466.05 K | 0.001514
468.15 K | 0.001514
470.25 K | 0.00152
472.25 K | 0.001523
474.35 K | 0.001527
476.35 K | 0.00153
478.45 K | 0.001533
480.45 K | 0.001536
482.55 K | 0.001543
484.65 K | 0.001546
486.65 K | 0.001549
488.75 K | 0.001549
490.75 K | 0.001557
492.85 K | 0.00156
494.95 K | 0.001563
496.95 K | 0.001566
499.05 K | 0.001569
501.05 K | 0.001575
503.15 K | 0.001578
505.25 K | 0.001582
507.25 K | 0.001586
509.35 K | 0.001592
511.35 K | 0.001594
513.45 K | 0.001599
515.55 K | 0.001604
517.55 K | 0.001609
519.65 K | 0.001609
521.65 K | 0.001615
523.75 K | 0.00162
525.85 K | 0.001625
531.35 K | 0.001634
533.25 K | 0.001639
535.25 K | 0.001641
537.15 K | 0.001646
539.15 K | 0.001649
541.05 K | 0.001653
543.05 K | 0.001659
544.95 K | 0.001663
546.85 K | 0.001667
548.85 K | 0.00167
550.75 K | 0.001676
552.75 K | 0.00168
554.65 K | 0.001683
556.65 K | 0.001687
558.55 K | 0.001692
560.45 K | 0.001697
562.45 K | 0.001702
564.35 K | 0.001707
566.35 K | 0.001711
568.25 K | 0.001717
570.25 K | 0.001722
572.15 K | 0.001725
574.05 K | 0.001732
576.05 K | 0.001737
